In assay [1] the target is T1, human glucagon receptor (Homo sapiens (Human), UniProt P47871). The experiment in a line: Human Glucagon SPA Assay (binding of [125I]Glucagon-Cex). The following applies: membrane from chem-1 cells stably transfected with the human glucagon receptor, Ki by Cheng-Prusoff equation. On the procedure:
The Glucagon SPA assay is used to determine the ability of test compounds to block the binding of glucagon-cex to the glucagon receptor. Test compounds are re-suspended and serially diluted in 100% DMSO. 1 μl of test compound at the desired concentrations is spotted into the appropriate wells of 96 well low binding white clear bottom plate (Corning). 1 μl of DMSO is spotted into total binding wells. 1 μl of a known glucagon antagonist at a concentration of 20 μM is added to non specific binding wells. […] All assay ingredients with the exception of test compounds are re-suspended in the following buffer; 50 mM Hepes pH 7.4; 5 mM MgCl2; 1 mM CaCl; 5% glycerol and 0.2% BSA. Following a 6-10 hr incubation at room temperature the amount of hot ligand bound to the cell membranes is determined by reading the plates on a Wallac Trilux radioactive emission detector. Data is analyzed using Pfizer's Data analysis program. IC50 values are then determined from the generated sigmoidal dose response curves. Ki values are calculated using Cheng-Prusoff equation. N is the number of times the compound was assayed.

The target in assay [2] is T1, human glucagon receptor. In words: Glucagon cAMP Assay (Cisbio cAMP detection). It counts as cell-based. The settings on record: CHOK1 cells stably transfected with the human glucagon receptor; block of glucagon induced cAMP production; Kb by modified Cheng-Prusoff equation. Background: Cyclic AMP is a second messenger, typically raised through Gs and lowered through Gi signalling.

These results are taken from US8507533B2, “Glucagon receptor modulators” (Pfizer Inc., priority 2011, dated 2013).

T1 sequence (P47871 26-477): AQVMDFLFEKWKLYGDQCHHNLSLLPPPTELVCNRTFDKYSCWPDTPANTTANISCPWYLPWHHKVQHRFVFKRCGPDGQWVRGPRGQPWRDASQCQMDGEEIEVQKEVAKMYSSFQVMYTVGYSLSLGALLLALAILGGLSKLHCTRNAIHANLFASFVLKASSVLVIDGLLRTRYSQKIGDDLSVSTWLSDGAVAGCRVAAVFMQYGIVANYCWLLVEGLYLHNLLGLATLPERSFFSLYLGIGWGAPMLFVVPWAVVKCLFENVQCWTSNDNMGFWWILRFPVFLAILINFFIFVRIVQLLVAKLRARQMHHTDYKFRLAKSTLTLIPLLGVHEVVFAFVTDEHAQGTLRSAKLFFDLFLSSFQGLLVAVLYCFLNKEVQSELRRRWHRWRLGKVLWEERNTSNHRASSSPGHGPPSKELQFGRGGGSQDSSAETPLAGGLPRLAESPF

As a reminder, the Ki is a measure of affinity in units of concentration, obtained from inhibition or displacement. A higher Ki goes with lower affinity. For the compound `CCCC(Nc1ccc(-n2cnc(-c3ccccc3)c2)nc1)c1ccc(C(=O)NCCC(=O)O)cc1` (racemic) [Example 162, (+/−)-3-(4-(1-(6-(4-phenyl-1H-imidazol-1-yl)pyridin-3-ylamino)butyl)benzamido)propanoic acid], the affinity on human glucagon receptor [1], expressed as Ki, was 0.0473 µM. The Kb at human glucagon receptor [2] came to 55.8 nM.

As for `Cc1nn(-c2ccc(NC(c3ccc(C(=O)NCCC(=O)O)cc3)C3CCCC3)cn2)cc1Cl` (racemic) [Example 163, (+/−)-3-(4-((6-(4-chloro-3-methyl-1H-pyrazol-1-yl)pyridin-3-ylamino)(cyclopentyl)methyl)benzamido)propanoic acid], the Ki on human glucagon receptor [1] was determined as 0.0659 µM. This compound also came in with a Kb at human glucagon receptor [2] of 42.7 nM.

Take `CCCC(Nc1ccc(-n2cc(-c3ccccn3)cn2)nc1)c1ccc(C(=O)NCCC(=O)O)cc1` (racemic) [Example 164]: the Ki on human glucagon receptor [1] is 0.192 µM. At human glucagon receptor [2], this compound showed a Kb of 52.4 nM.

For the compound `CCCC(Nc1ccc(-n2cc(-c3ccccc3)cn2)nc1)c1ccc(C(=O)N(C)CCC(=O)O)cc1` (racemic) [Example 165, (+/−)-3-(N-methyl-4-(1-(6-(4-phenyl-1H-pyrazol-1-yl)pyridin-3-ylamino)butyl)benzamido)propanoic acid], the Ki on human glucagon receptor [1] was 0.142 µM. In addition, the Kb at human glucagon receptor [2] stood at 305 nM.

In turn, `CCCC(Nc1ccc(-n2cc(C3CC3)cn2)nc1)c1ccc(C(=O)NCCC(=O)O)cc1` (racemic) [Example 176, (+/−)-N-[4-(1-{[6-(4-cyclopropyl-1H-pyrazol-1-yl)pyridin-3-yl]amino}butyl)benzoyl]-beta-alanine] showed a Ki at human glucagon receptor [1] of 0.101 µM. This compound returned a Kb at human glucagon receptor [2] of 79.1 nM.

Take `O=C(O)CCNC(=O)c1ccc(C(Nc2ccc(-n3cc(C(F)(F)F)cn3)nc2)C2CCOCC2)cc1` (racemic) [Example 177, (±)-3-(4-((tetrahydro-2H-pyran-4-yl)((6-(4-(trifluoromethyl)-1H-pyrazol-1-yl)pyridin-3-yl)amino)methyl)benzamido)propanoic acid]: the affinity at human glucagon receptor [1], expressed as Ki, was 0.432 µM. Moreover, the Kb at human glucagon receptor [2] was 2340 nM.

The compound `CC(C)(C)C(Nc1ccc(-n2cc(C(F)(F)F)cn2)nc1)c1ccc(C(=O)NCCC(=O)O)cc1` (racemic) [Example 178, (±)-3-(4-(2,2-dimethyl-1-((6-(4-(trifluoromethyl)-1H-pyrazol-1-yl)pyridin-3-yl)amino)propyl)benzamido)propanoic acid] showed a Ki at human glucagon receptor [1] of 0.0374 µM. The same compound showed a Kb at human glucagon receptor [2] of 215 nM.

Compound `CC(C)(C)C(Nc1ccc(-n2cnc(C(F)(F)F)c2)nc1)c1ccc(C(=O)NCCC(=O)O)cc1` (racemic) [Example 181, (±)-3-(4-(2,2-dimethyl-1-((6-(4-(trifluoromethyl)-1H-imidazol-1-yl)pyridin-3-yl)amino)propyl)benzamido)propanoic acid] returned a Ki at human glucagon receptor [1] of 0.0872 µM. The compound further returned a Kb at human glucagon receptor [2] of 195 nM.

`CCCC(Oc1cc(F)c(-n2cc(C(F)(F)F)cn2)c(F)c1)c1ccc(C(=O)NCCC(=O)O)cc1` (racemic) [Example 184, (+/−)-3-(4-{1-[3,5-difluoro-4-(4-trifluoromethyl-pyrazol-1-yl)-phenoxy]-butyl}-benzoylamino)-propionic acid]: the Ki at human glucagon receptor [1] was 0.24 µM. The compound also returned a Kb on human glucagon receptor [2] of 321 nM.

As for `CCCC(Oc1ccc(-n2cc3cc(F)ccc3n2)cc1)c1ccc(C(=O)NCCC(=O)O)cc1` (racemic) [Example 185, (+/−)-3-(4-{1-[4-(5-fluoro-indazol-2-yl)-phenoxy]-butyl}-benzoylamino)-propionic acid], the affinity at human glucagon receptor [1] corresponds to a Ki of 0.137 µM. For the same compound, the Kb at human glucagon receptor [2] amounted to 175 nM.

The compound `CCCC(Oc1ccc(-n2cc3ccc(F)cc3n2)cc1)c1ccc(C(=O)NCCC(=O)O)cc1` (racemic) [Example 186, (+/−)-3-(4-{1-[4-(6-fluoro-indazol-2-yl)-phenoxy]-butyl}-benzoylamino)-propionic acid] displayed a Ki at human glucagon receptor [1] of 0.175 µM. Also, the Kb at human glucagon receptor [2] was found to be 192 nM.

As for `O=C(O)CCNC(=O)c1ccc(C(Nc2ccc(-n3cnc(C(F)(F)F)c3)nc2)C2CCCC2)cc1` (single isomer, unassigned) [Example 97, 3-(4-(cyclopentyl(6-(4-(trifluoromethyl)-1H-imidazol-1-yl)pyridin-3-ylamino)methyl)benzamido)propanoic acid], affinity at human glucagon receptor [1] was put at a Ki of 0.093 µM. On human glucagon receptor [2], this compound returned a Kb of 90.8 nM.

As to `O=C(O)CCNC(=O)c1ccc(C(Nc2ccc(-n3cnc(C(F)(F)F)c3)nc2)C2CCCC2)cc1` (single isomer, unassigned) [Example 98, 3-(4-(cyclopentyl(6-(4-(trifluoromethyl)-1H-imidazol-1-yl)pyridin-3-ylamino)methyl)benzamido)propanoic acid], at human glucagon receptor [1], the Ki was found to be 1.1 µM. The same compound displayed a Kb at human glucagon receptor [2] of 1060 nM.

`CCCC(Nc1ccc(-n2cc(C(F)(F)F)cn2)nc1)c1ccc(C(=O)NCCC(=O)O)cc1F` (single isomer, unassigned) [Example 109, 3-(3-fluoro-4-(1-(6-(4-(trifluoromethyl)-1H-pyrazol-1-yl)pyridin-3-ylamino)butyl)benzamido)propanoic acid]: the Ki on human glucagon receptor [1] was 0.153 µM. The Kb on human glucagon receptor [2] amounted to 1710 nM.

Compound `CCCC(Nc1ccc(-n2cc(C(F)(F)F)cn2)nc1)c1ccc(C(=O)NCCC(=O)O)cc1F` (single isomer, unassigned) [Example 110, 3-(3-fluoro-4-(1-(6-(4-(trifluoromethyl)-1H-pyrazol-1-yl)pyridin-3-ylamino)butyl)benzamido)propanoic acid] registered a Ki at human glucagon receptor [1] of 0.0572 µM. At human glucagon receptor [2], this compound came in with a Kb of 97 nM.

On human glucagon receptor [1], `CCCC(Nc1ccc(-n2cc(C(F)(F)F)cn2)nc1)c1ccc(C(=O)NCCC(=O)O)cc1C` (single isomer, unassigned) [Example 111, 3-(3-methyl-4-(1-(6-(4-(trifluoromethyl)-1H-pyrazol-1-yl)pyridin-3-ylamino)butyl)benzamido)propanoic acid] showed an inhibition constant Ki of 0.202 µM. On human glucagon receptor [2], the Kb is 2350 nM.

On human glucagon receptor [1], `CCCC(Nc1ccc(-n2cc(C(F)(F)F)cn2)nc1)c1ccc(C(=O)NCCC(=O)O)cc1C` (single isomer, unassigned) [Example 112] returned a Ki of 0.143 µM. In addition, the Kb at human glucagon receptor [2] stood at 126 nM.

On human glucagon receptor [1], `CC1(C)CC(C(Nc2ccc(-n3cc(C(F)(F)F)cn3)nc2)c2ccc(C(=O)NCCC(=O)O)cc2)C1` (single isomer, unassigned) [Example 114, 3-(4-((3,3-dimethylcyclobutyl)(6-(4-(trifluoromethyl)-1H-pyrazol-1-yl)pyridin-3-ylamino)methyl)benzamido)propanoic acid] registered a Ki of 0.0076 µM. The Kb on human glucagon receptor [2] is 17 nM.

On human glucagon receptor [1], `CC1(C)CC(C(Nc2ccc(-n3cc(C(F)(F)F)cn3)nc2)c2ccc(C(=O)NCCC(=O)O)cc2)C1` (single isomer, unassigned) [Example 115, 3-(4-((3,3-dimethylcyclobutyl)(6-(4-(trifluoromethyl)-1H-pyrazol-1-yl)pyridin-3-ylamino)methyl)benzamido)propanoic acid] showed a Ki of 0.0158 µM. Also, at human glucagon receptor [2], the Kb was 231 nM.

Turning to `CCCC(Oc1ccc(-n2cc3ccccc3n2)c(C)c1)c1ccc(C(=O)NCCC(=O)O)cc1` (single isomer, unassigned) [Example 116, 3-(4-(1-(4-(2H-indazol-2-yl)-3-methylphenoxy)butyl)benzamido)propanoic acid], the Ki on human glucagon receptor [1] was found to be 0.464 µM. This compound returned a Kb on human glucagon receptor [2] of 450 nM.

`O=C(O)CCNC(=O)c1ccc(C(Nc2ccc(-n3cnc(Cl)c3)nc2)C2CCCC2)cc1` (single isomer, unassigned) [Example 120, 3-(4-((6-(4-chloro-1H-imidazol-1-yl)pyridin-3-ylamino)(cyclopentyl)methyl)benzamido)propanoic acid]: the affinity on human glucagon receptor [1] corresponds to a Ki of 0.225 µM. The Kb on human glucagon receptor [2] came out at 65 nM.

As to `CCCC(Nc1ccc(-n2cnc(-c3ccccc3)c2)nc1)c1ccc(C(=O)NCCC(=O)O)cc1` (single isomer, unassigned) [Example 129, 3-(4-(1-(6-(4-phenyl-1H-imidazol-1-yl)pyridin-3-ylamino)butyl)benzamido)propanoic acid], the affinity on human glucagon receptor [1] corresponds to a Ki of 0.0293 µM. The Kb on human glucagon receptor [2] turned out to be 13 nM.

Take `CC1(C)CC([C@@H](Nc2ccc(-n3cnc(C(F)(F)F)c3)nc2)c2ccc(C(=O)NCCC(=O)O)cc2)C1` (single isomer, unassigned) [Example 134, 3-(4-((3,3-dimethylcyclobutyl)(6-(4-(trifluoromethyl)-1H-imidazol-1-yl)pyridin-3-ylamino)methyl)benzamido)propanoic acid]: affinity at human glucagon receptor [1] was put at a Ki of 0.11 µM. The Kb at human glucagon receptor [2] is 876 nM.

Compound `CC1(C)CC([C@@H](Nc2ccc(-n3cnc(C(F)(F)F)c3)nc2)c2ccc(C(=O)NCCC(=O)O)cc2)C1` (single isomer, unassigned) [Example 135, 3-(4-((3,3-dimethylcyclobutyl)(6-(4-(trifluoromethyl)-1H-imidazol-1-yl)pyridin-3-ylamino)methyl)benzamido)propanoic acid] came in with a Ki on human glucagon receptor [1] of 0.035 µM. The same compound registered a Kb on human glucagon receptor [2] of 28 nM.

On human glucagon receptor [1], `CCC[C@@H](Nc1ccc(-n2cc(C(C)(C)C)cn2)nc1)c1ccc(C(=O)NCCC(=O)O)cc1` (single isomer, unassigned) [Example 136, 3-(4-(1-(6-(4-tert-butyl-1H-pyrazol-1-yl)pyridin-3-ylamino)butyl)benzamido)propanoic acid] had a Ki of 0.0302 µM. Further, on human glucagon receptor [2], the Kb was determined as 222 nM.
